Source: patent publication US20260216193A1, “TREATMENT OF HAND ECZEMA” (LEO Pharma A/S, priority 2016, published 2026)
“Also recorded” adds a separate entry of the source.

Tested on: subjects with chronic hand eczema
Assay: phase 2a clinical trial, twice daily topical ointment 30 mg/g vs ointment vehicle for 8 weeks
Assay type: in vivo, human
Experimental: The invention provides a clinical trial to compare efficacy of twice daily topical ointment with 30 mg/g of the compound of formula (I), with an ointment vehicle for 8 weeks in the treatment of hand eczema. The compound of formula (I) is formulated in an ointment containing the active compound in 30 mg/g, white soft paraffin, hard paraffin and squalane. Dosis range will be a thin layer covering the affected areas on the hands corresponding to 1.7 mg/cm^2 of the compound of formula (I). The primary efficacy parameter for ‘treatment success’ is Physician's Global Assessment of disease severity (PGA). […] Patient's Global Assessment of disease severity (PaGA) was recorded at the same visits. • 1. […] In overall good health including well controlled diseases (e.g. hypertension, diabetes and thyroid disease) as determined by medical history, physical examination, electrocardiogram (ECG), vital signs (blood pressure, heart rate and body temperature) and clinical laboratory evaluation. […]

Compound: C[C@H]1CN(C(=O)CC#N)[C@]12CCN(c1ncnc3[nH]ccc13)C2 [compound of formula (I), 3-[(3S,4R)-3-methyl-6-(7H-pyrrolo[2,3-d]pyrimidin-4-yl)-1,6-diazaspiro[3.4]octan-1-yl]-3-oxopropanenitrile]
- “treatment success” according to Physician's Global Assessment of disease severity (PGA) (ointment 30 mg/g twice daily topical vs ointment vehicle, up to 8 weeks, prespecified analysis at week 8, subjects with chronic hand eczema): resulted in “treatment success”; also recorded: statistically significant (P=0.009) difference in favor
- safety and tolerability (ointment 30 mg/g, twice daily topical, patients with hand eczema): safe and well tolerated
